Experiments:
Rattus norvegicus = test: Organ protective activity in aldosterone-induced uninephrectomized Sprague-Dawley rat model assessed as degeneration of arteries and perivascular fibrosis in heart by measuring pathological lesion score at 10 mg/kg/day by sirius red and H and E staining based histological analysis (reference value: 1.6 +/- 0.4); type: functional
[1] = target: T1, Mineralocorticoid receptor (Rattus norvegicus, UniProt P22199)
T1 sequence (P22199 whole entry): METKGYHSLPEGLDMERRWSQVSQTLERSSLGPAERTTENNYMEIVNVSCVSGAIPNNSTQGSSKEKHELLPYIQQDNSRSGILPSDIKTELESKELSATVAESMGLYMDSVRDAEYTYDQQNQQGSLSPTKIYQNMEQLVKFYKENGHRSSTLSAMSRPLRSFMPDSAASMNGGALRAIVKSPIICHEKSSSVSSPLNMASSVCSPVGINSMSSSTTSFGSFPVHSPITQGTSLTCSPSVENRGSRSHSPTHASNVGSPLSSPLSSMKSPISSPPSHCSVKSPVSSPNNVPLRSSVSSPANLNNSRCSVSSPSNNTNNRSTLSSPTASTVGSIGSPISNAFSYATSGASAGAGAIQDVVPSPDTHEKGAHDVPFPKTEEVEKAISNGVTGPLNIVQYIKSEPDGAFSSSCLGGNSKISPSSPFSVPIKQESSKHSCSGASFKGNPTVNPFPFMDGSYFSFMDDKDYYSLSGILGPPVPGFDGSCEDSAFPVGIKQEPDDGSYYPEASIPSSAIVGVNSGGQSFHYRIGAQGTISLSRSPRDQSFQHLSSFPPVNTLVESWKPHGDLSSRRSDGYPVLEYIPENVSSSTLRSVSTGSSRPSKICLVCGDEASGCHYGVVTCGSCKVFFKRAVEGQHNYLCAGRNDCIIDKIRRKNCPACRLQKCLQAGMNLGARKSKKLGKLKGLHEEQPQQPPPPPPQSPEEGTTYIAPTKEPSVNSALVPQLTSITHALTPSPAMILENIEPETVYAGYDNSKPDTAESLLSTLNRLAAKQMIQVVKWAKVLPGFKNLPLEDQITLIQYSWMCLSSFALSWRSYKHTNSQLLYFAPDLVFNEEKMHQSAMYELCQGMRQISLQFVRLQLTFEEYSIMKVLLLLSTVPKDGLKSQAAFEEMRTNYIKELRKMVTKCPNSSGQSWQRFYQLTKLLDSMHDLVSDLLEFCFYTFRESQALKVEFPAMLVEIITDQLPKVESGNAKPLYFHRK
Description: Displacement of [3H]-aldosterone from rat mineralocorticoid receptor incubated overnight by liquid scintillation counting analysis

- Ki [1]: 0.0308 µM
SMILES: CC1(C)Oc2cc(NS(C)(=O)=O)ccc2N(c2ccc(F)cc2)C1=O [MT-3995]
- Activity (Rattus norvegicus): 0

From ChEMBL document CHEMBL5131538 (J Med Chem, 2022)
